Patent publication US11104661B1, “Inhibiting human integrin (α-4) (β-7)” (Morphic Therapeutic, Inc., priority 2019, dated 2021)

Legend:
α4β7 [1] = target: T1, α4β7 (Homo sapiens, UniProt P13612+P26010); test: Cell adhesion assay, RPMI8866 cells on MAdCAM coated plates (Example 7); format: cell-based; conditions: RPMI8866 cells adhering to recombinant human MAdCAM, read-out: CA Assay (Example 7)
T1 construct: endogenous in cells; host or cells: RPMI 8866 cells
T1 sequence (P13612 34-1032): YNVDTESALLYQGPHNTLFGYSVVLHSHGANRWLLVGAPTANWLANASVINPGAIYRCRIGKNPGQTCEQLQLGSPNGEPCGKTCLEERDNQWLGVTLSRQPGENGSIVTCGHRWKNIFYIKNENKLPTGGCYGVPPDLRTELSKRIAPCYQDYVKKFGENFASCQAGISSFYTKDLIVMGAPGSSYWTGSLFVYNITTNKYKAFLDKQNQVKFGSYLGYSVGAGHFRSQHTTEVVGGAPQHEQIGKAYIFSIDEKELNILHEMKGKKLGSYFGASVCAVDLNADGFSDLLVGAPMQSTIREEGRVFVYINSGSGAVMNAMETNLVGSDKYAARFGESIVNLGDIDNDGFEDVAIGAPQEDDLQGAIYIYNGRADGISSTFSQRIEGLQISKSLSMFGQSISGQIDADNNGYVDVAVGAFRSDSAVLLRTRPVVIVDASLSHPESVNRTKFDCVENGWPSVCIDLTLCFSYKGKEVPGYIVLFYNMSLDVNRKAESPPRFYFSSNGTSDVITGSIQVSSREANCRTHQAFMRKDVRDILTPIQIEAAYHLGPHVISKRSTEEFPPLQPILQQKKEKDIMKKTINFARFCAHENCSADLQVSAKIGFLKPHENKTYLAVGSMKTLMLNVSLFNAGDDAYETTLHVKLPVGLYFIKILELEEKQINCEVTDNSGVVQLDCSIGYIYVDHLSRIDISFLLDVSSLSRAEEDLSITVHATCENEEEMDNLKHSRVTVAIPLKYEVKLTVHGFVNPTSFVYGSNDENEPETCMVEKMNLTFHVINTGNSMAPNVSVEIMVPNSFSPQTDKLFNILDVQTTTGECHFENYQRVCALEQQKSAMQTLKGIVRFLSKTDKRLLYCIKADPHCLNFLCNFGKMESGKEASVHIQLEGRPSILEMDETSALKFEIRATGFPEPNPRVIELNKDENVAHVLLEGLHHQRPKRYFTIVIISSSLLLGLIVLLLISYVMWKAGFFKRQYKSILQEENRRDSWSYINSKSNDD
T1 sequence (P26010 20-798): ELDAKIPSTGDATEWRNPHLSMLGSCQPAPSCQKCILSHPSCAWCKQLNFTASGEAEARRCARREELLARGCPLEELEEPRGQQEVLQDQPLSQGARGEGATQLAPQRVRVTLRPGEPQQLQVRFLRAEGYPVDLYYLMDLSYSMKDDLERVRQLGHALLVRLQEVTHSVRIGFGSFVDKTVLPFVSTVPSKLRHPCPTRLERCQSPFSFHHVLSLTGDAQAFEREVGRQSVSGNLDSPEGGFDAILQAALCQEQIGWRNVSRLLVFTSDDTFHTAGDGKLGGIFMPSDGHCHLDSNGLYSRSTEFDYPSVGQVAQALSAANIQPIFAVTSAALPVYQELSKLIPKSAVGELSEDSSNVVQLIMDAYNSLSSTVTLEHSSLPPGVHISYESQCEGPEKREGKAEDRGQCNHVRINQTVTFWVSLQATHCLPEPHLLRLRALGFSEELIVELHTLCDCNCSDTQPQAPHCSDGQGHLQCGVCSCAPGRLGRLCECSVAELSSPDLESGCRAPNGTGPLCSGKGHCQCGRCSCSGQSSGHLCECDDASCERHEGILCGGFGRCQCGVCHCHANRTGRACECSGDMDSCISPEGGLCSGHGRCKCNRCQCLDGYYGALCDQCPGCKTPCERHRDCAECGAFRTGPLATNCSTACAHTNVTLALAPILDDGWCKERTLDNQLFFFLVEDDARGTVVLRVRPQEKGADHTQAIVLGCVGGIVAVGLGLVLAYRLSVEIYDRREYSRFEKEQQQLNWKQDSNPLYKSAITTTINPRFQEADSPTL
Protocol: (§1) Three in vitro assays were used to examine the α4β7 mechanistic process used by cells: 1) ligand:receptor affinity, 2) the avidity of those interactions on a cell's surface, and 3) how those interactions fare under an imposing force. In Example 5, a Fluorescence Polarization (FP) assay is used to measure compound activity through binding competition with the fluorescein-labeled peptide. In Example 6, the potency of compounds against α4β7 is measured in the cell-based ligand binding assay (LBA), using RPMI 8866 cells incubated with the compound samples in competition with soluble MAdCAM-1 ligand. In Example 7, activity of compounds is evaluated in a cell adhesion assay that mechanistically tests what occurs in vivo when trafficking cells utilize α4β7 to adhere to MAdCAM-1 expressing HEVs of the gut during the extravasation process. In the cell adhesion assay of Example 7, a MAdCAMI1-(Fc) is coated on plastic, and α4β7 expressing cells (RPMI-8866) are allowed to adhere to the coated surface in the presence of the test compounds. Next, the force of washing with buffer is applied to cells thereby testing the strength of that adhesion. Unattached cells are removed and the remaining adherent cells are quantified.
Example 7 describes a cell adhesion assay.
To each well of a 96 well plate, 100 ug of recombinant human MAdCAM in 100 ul PBS is added and incubated overnight at 4° C. After incubation MAdCAM is removed by aspiration and 200 ul of PBS+1% BSA is added to block the plate for 2 hours at 37° C. and 5% CO2. During this incubation dilution curves of compound are made in 100% DMSO in 96 well V bottom plates. 1.75 ul of diluted compounds are then transferred to a new 96 well U bottom plate containing 20 ul of assay media (phosphate free DMEM+25 mM HEPES+1% BSA). To this an additional 155 ul of assay media is added with mixing by pipetting up and down. This mixture is allowed to incubate for 15 minutes at 37° C. and 5% CO2. After incubation 175 ul of assay media containing 2e6/mL RPMI8866 cells is added to compound containing wells without mixing and plate is allowed to incubate for another 15 minutes at 37° C. and 5% CO2. During this incubation MAdCAM coated plates are removed from incubator and washed twice with 200 ul PBS+0.1% BSA. […] This plate is then incubated at 37° C. and 5% CO2 for 1 hour. After incubation plates are washed twice with 200 ul and once with 50 ul of phenol free RPMI+1% BSA. A final 50 ul of phenol free RPMI+1% BSA is added to wells after last wash. Next 50 ul of Promega cell titer glow is added to the wells. Plate is incubated on shaker for 2 minutes at 200 RPM followed by another 8 minutes off shaker before having the luminescence read on a Biotek Citation 5 plate reader. Raw data is converted to % inhibition compared to bottom of curve and analyzed using a 4-parameter non linear curve in Prism to determine IC50 and IC90.

α4β7 [2] = target: T1, α4β7; test: Cell-based MAdCAM-1 ligand binding assay (LBA) on RPMI 8866 cells (Example 6); conditions: MAdCAM-1-Fc Dylight 650, 3 mM manganese chloride, flow cytometry, Table 4 comparative compounds, read-out: LB Assay (Example 6)
From the text: Compounds of Formula (I) were further evaluated using a Ligand binding assay (LBA) to examine compound potency of free ligand binding to receptors expressed on cells. The MAdCAM ligand binding assay uses flow cytometry to measure the binding of fluorescently-labeled MAdCAM-1-Fc to RPMI 8866 cells in the presence of Mn++. This assay assesses the binding of compounds to native full-length receptors on the cell surface. […] Ligand binding assays (LBA) are used to examine compound potency and selectivity of free ligand binding to receptors expressed on cells.
as §1
5 ul of 33 nM MAdCAM-1-Fc fluorescently labeled with Dylight 650 in 50 mM HEPES pH 7.3, 150 mM sodium chloride, and 1% bovine serum albumin was added to the cells. The samples were incubated for 45 minutes at room temperature, fixed with 0.8% formaldehyde for 30 minutes at room temperature, and washed with 50 mM Tris pH 7.5, 150 mM NaCl, 1 mM EDTA, and 1% bovine serum albumin. Fluorescence intensity for each cell was measured via flow cytometry. Dead cells were excluded from further analysis based on staining with the 780 fixable viability dye. Median fluorescence intensity for Dylight 650 was determined for each sample and concentration-response curves were analyzed for IC50 values using 4-parameter non-linear regression analysis.

integrin α4β7 = target: T2, integrin α4β7 (Homo sapiens, UniProt P13612+P26010); test: Fluorescence polarization (FP) assay for α4β7 binding (Example 5); conditions: competition with fluorescein-labeled peptide, 6.5 nM integrin α4β7, 2 mM manganese chloride; Table 4 comparative compounds
T2 sequence (P13612 35-977 limits assumed): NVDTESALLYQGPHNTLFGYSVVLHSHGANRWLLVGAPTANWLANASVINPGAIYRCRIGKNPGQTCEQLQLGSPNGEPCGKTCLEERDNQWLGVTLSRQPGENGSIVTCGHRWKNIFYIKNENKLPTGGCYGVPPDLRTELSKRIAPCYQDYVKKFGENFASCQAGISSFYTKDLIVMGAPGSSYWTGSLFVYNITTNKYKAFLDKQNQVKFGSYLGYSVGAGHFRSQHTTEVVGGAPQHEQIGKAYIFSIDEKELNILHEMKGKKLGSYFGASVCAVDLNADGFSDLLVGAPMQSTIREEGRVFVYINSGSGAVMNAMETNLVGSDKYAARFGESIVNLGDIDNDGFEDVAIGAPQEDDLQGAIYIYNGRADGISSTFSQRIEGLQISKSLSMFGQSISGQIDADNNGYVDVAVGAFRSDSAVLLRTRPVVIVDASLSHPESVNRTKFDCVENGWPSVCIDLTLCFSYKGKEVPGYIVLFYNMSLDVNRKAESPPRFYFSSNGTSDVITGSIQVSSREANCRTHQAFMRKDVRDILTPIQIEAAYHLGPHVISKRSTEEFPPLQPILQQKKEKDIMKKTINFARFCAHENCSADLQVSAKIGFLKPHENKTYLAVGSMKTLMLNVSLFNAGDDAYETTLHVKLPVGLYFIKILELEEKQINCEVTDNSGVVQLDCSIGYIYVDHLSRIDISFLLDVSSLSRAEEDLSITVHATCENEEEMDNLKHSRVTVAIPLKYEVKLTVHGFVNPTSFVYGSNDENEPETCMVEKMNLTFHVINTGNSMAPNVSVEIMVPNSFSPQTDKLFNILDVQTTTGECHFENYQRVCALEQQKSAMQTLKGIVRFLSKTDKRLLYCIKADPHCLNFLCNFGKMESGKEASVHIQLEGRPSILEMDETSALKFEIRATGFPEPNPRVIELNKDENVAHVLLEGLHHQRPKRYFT
T2 sequence (P26010 20-723 limits assumed): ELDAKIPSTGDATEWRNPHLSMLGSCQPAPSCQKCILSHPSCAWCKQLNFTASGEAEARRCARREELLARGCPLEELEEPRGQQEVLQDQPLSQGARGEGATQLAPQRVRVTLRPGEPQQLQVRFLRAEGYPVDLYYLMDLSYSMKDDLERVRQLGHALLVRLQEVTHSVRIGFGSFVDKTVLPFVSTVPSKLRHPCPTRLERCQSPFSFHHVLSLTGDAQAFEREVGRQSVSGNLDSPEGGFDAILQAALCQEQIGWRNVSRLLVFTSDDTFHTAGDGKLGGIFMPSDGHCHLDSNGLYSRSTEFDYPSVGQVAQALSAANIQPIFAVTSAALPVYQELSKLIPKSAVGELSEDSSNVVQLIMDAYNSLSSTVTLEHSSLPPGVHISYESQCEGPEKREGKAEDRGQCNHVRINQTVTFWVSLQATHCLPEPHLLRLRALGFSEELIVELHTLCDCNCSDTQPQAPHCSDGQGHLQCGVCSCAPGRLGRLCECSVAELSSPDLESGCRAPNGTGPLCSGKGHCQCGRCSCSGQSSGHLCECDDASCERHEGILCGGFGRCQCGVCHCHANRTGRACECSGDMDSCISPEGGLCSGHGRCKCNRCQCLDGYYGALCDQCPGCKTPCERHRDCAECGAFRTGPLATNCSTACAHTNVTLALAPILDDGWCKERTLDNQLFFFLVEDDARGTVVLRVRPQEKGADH
Protocol: Compounds of Formula (I) were evaluated using a fluorescent polarization (FP) assay. FP assays are used to evaluate potency of compounds on purified protein. The FP assays consists of measuring purified integrin αβ heterodimer ecto domains or headpiece binding to surrogate or truncated ligands.
as §1
Fluorescence Polarization (FP) assays were used to measure compound activity through binding competition with the fluorescein-labeled peptide […]{Lys(FITC)}. In the assay, 6.5 nM of integrin α4β7 was incubated with the test compound in 2 mM manganese chloride, 0.1 mM calcium chloride, 20 mM HEPES buffer at pH 7.3, 150 mM sodium chloride, 0.01% Triton X-100, 2% DMSO, and 3 nM of the fluorescein-labeled peptide. Running the assays in 384-well plates, the integrin protein was pre-incubated with the test compounds for 15 minutes at 22° C. before the fluorescein-labeled peptide was added. After the fluorescein-labeled peptide was added, the assay was incubated at 22° C. for 1 hour and fluorescence polarization was measured. IC50 values were determined by nonlinear regression, four-parameter curve fitting.

IC50 (integrin α4β7) | Structure (SMILES) | other results
– | Cc1ccccc1-c1cc([C@H](CC(=O)O)NC(=O)[C@H](CC(C)C)n2ccc(C(F)(F)F)cc2=O)cnc1C | IC50 (α4β7 [1]; Table 4 comparative compounds): > 100 nM; IC50 (α4β7 [2]): 10 to 500 nM
10 to 500 nM | Cc1cccc(C)c1-c1cncc([C@H](CC(=O)O)NC(=O)[C@@H](CC(C)C)n2ccccc2=O)c1 | –
> 500 nM | Cc1cccc(C)c1-c1cncc([C@@H](CC(=O)O)NC(=O)[C@H](CC(C)C)n2ccccc2=O)c1 | –
> 500 nM | Cc1cccc(C)c1-c1cncc([C@@H](CC(=O)O)NC(=O)[C@@H](CC(C)C)n2ccccc2=O)c1 | –
– | COC1CN(CCc2cn([C@H](CC(C)C)C(=O)N[C@@H](CC(=O)O)c3cc(-c4c(C)cccc4C)cc(Cl)c3F)c(=O)cc2C(F)(F)F)C1 [W-P2, (3S)-3-(5-chloro-4-fluoro-2′,6′-dimethyl-[1,1′-biphenyl]-3-yl)-3-(2-(5-(2-(3-methoxyazetidin-1-yl)ethyl)-2-oxo-4-(trifluoromethyl)pyridin-1(2H)-yl)-4-methylpentanamido)propanoic acid] | IC50 (α4β7 [1]; Table 3): < 5 nM
